Reference: US7718700B2, “Growth factor-binding compounds and methods of use” (Yale University, priority 2004, dated 2010)
“Also recorded” adds a separate entry of the source.

How the values were obtained:
[1] = tested on: PDGF-stimulated Erk1, Erk2, Akt and STAT3 phosphorylation; experiment: PDGF-stimulated phosphorylation of Erk1/2, Akt and STAT3 in NIH 3T3 cells; assay type: cell-based, mouse; conditions: GFB204 10 μM
Method: (§1) FIGS. 3A and 3B show the effect of GFB204 on growth factor stimulated Erk1, Erk2, Akt, and STAT3 phosphorylation. GFB204 inhibits VEGF and PDGF stimulation of Flk-1 tyrosine phosphorylation and Erk1/Erk2 phosphorylation (FIG. 3A). NIH 3T3 cells or Flk-1/NIH 3T3 cells were treated with increasing concentrations of GFB204 for 5 minutes prior to stimulation with PDGFBB (10 ng/ml) or VEGF (50 ng/ml), respectively, for 10 minutes. The cells were then lysed and processed for SDS-PAGE Western blotting with an antibody specific for phosphotyrosine-Flk-1 or anti-phosphotyrosine for PDGFR tyrosine phosphorylation or phospho-Erk1/2. GFB204 effects on growth factor-stimulated Erk1, Erk2, Akt and STAT3 phosphorylation (FIG. 3B). NIH 3T3, Flk-1/NIH 3T3, IGF-1R/NIH 3T3 or EGFR/NIH 3T3 cells were treated with GFB204 (10 μM) prior to stimulation with PDGF (NIH 3T3) VEGF (Flk-1/NIH 3T3), EGF (EGFR/NIH 3T3), bFGF (NIH 3T3) or IGF-1 (IGF-1R/NIH 3T3). The cells were then harvested and processed for SDS-PAGE Western blotting with antibodies specific for phospho-Erk1/2, phospho-Akt and phospho-STAT3.
(§2) Growth factor-mediated stimulation of phosphorylation of Erk1/2, Akt and STAT3. […]

[2] = target: T1, EGFR (Homo sapiens, UniProt P00533); experiment: 125I-EGF binding to its receptor on EGFR/NIH 3T3 cells; conditions: concentrations as high as 100 μM
T1 construct: expressed in transfected cells; host or cells: NIH 3T3 (EGFR/NIH 3T3)
Method: Flk-1/NIH 3T3, NIH 3T3 and EGFR/NIH 3T3 cells were incubated with ^125I-VEGF, ^125I-PDGF and ^125I-EGF (50,000 cpm/well) respectively, along with increasing concentrations of GFB204. Cells were incubated at 4° C. for 0.5 hours, then washed three times with PBS and three times with lysis buffer prior to determining ^125I counts as described under Materials and Methods. An excess of cold VEGF, PDGF, and EGF was used to obtain non-specific binding levels. FIGS. 2A-2C show specific binding (% control) for PDGFR, Flk-1, and EGFR, respectively.
Binding of ^125I-growth factors to their receptors. The binding assay of ^125I-VEGF, ^125I-PDGF and ^125I-EGF to their respective receptors was carried out as described previously (Blaskovich, M. A. et al. Nat Biotechnol, 2000, 18:1065-70. Briefly, Flk-1/NIH 3T3 cells, NIH 3T3 cells and EGFR/NIH 3T3 cells were incubated with ^125I-VEGF, ^125I-PDGF and ^125I-EGF (50,000 cpm/well), respectively, and increasing concentrations of GFB204. Cells were incubated at 4° C. for 0.5 hours, then washed three times with PBS and three times with 25 mM Tris, pH 8.0, 1% Triton-X-100, 10% glycerol, and 1% SDS prior to determining ^125I counts on a gamma counter (Beckmann Inc.). An excess of cold growth factors were used to obtain nonspecific binding levels.

[3] = tested on: VEGF-stimulated Erk1, Erk2, Akt and STAT3 phosphorylation; experiment: VEGF-stimulated phosphorylation of Erk1/2, Akt and STAT3 in Flk-1/NIH 3T3 cells; assay type: cell-based, mouse; conditions: GFB204 10 μM
Method: as §1, §2

T1 sequence (P00533 25-1210): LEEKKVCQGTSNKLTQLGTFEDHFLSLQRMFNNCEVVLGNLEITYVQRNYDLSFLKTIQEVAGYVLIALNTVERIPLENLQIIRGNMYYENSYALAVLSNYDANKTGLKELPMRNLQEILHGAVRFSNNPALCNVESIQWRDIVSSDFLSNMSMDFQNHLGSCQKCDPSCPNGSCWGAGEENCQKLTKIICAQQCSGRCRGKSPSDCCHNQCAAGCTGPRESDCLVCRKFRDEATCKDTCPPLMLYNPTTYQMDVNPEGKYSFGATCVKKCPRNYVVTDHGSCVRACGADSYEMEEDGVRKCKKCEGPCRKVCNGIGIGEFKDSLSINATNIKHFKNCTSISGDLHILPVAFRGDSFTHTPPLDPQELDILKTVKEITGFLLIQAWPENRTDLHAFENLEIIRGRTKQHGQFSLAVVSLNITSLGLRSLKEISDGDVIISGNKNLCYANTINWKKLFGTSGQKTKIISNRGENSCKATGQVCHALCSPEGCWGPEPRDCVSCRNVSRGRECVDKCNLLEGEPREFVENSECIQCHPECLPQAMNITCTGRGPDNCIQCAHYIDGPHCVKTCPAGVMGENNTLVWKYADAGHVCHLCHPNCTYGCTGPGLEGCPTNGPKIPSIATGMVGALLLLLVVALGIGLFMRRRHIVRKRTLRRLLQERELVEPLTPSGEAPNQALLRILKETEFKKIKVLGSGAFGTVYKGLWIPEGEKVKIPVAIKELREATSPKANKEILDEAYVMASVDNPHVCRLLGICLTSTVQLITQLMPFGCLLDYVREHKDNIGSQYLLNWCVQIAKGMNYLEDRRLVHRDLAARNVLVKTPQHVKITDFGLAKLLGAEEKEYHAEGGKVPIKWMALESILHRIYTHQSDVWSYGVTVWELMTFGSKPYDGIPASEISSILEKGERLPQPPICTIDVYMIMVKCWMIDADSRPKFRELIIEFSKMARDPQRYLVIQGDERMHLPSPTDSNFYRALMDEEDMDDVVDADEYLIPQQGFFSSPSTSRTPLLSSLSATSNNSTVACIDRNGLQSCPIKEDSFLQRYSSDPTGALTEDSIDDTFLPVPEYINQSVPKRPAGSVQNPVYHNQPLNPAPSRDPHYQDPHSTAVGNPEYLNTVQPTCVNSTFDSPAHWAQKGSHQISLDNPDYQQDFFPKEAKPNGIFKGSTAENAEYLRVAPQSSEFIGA

In the case of `CCCCOc1c2cc(C(=O)Nc3cc(C(=O)O)cc(C(=O)OCc4ccccc4)c3)cc1Cc1cc(C(=O)Nc3cc(C(=O)O)cc(C(=O)OCc4ccccc4)c3)cc(c1OCCCC)Cc1cc(C(=O)Nc3cc(C(=O)O)cc(C(=O)OCc4ccccc4)c3)cc(c1OCCCC)Cc1cc(C(=O)Nc3cc(C(=O)O)cc(C(=O)OCc4ccccc4)c3)cc(c1OCCCC)C2` [GFB204], the “PDGF-stimulation of the phosphorylation of Erk1, Erk2, Akt and STAT3” value [1] is reported as “blocked; also recorded: inhibited”, the “[I-125]EGF binding to its receptor” value [2] is reported as “not affected” and the “VEGF-stimulation of the phosphorylation of Erk1, Erk2, Akt and STAT3” value [3] is reported as “blocked; also recorded: inhibited”.
